The values below come from US4370266A, “Mycoplanecin derivatives and their preparation” (Sankyo Company, Limited, priority 1980, dated 1983).

Each structure is given as a SMILES string. Converted amounts (≈) assume the structure as drawn. Where two headings read alike, the source gives them in different places. Numbered stars: 1 amine (or outer) side, 2 acyl side, 3 side chain; on linkers, the order of the positions; unused ones are H or OH. Bridge positions count the residues as written; N and C are the ends. Square brackets hold non-standard residues; d marks the D form. Peptide text beside a SMILES is read from it. * marks the point of attachment. ξ: configuration not given here. X1 = CCC1CC(C(=O)[*:2])N([*:1])C1; Butanoyl(2-oxo) = CCC(=O)C(=O)*; NMeAhp(2) = CCCCC[CH](NC)C(=O)O; ξPro(4ξ-Me) = CC1CNC(C(=O)O)C1; NMeT = CN[CH](C(=O)O)[CH](C)O; NMeL = CN[CH](CC(C)C)C(=O)O; hLeu = CC(C)CC[CH](N)C(=O)O; NMeV = CN[CH](C(=O)O)C(C)C; X2 = CCC(O)C(=O)* Where only a bound is given, the exact number is not on record here.

Data set [1] concerns microorganisms of the genus Mycobacterium. Particulars: earlier applications on Mycoplanecin A; cited from earlier work.
Data set [2] deals with Mycobacterium smegmatis ATCC 607. As to the kind of experiment: Minimal inhibitory concentration (MIC), Mycobacterium smegmatis ATCC 607. Particulars: Mycolicibacterium smegmatis, ATCC607, 168 h.
Data set [3] concerns Candida albicans Yu 1200. As to the kind of experiment: MIC, Candida albicans Yu 1200. It counts as cell-based.
Data set [4] deals with Aspergillus oryzae SANK 11262. As to the kind of experiment: MIC, Aspergillus oryzae SANK 11262. It counts as cell-based.
Data set [5] concerns Penicillium chrysogenum SANK 12768. Description: MIC, Penicillium chrysogenum SANK 12768. Type of data set: cell-based.
The test system of data set [6] is Trichophyton mentagrophytes SANK 22374. Description: MIC, Trichophyton mentagrophytes SANK 22374. It counts as cell-based.
Data set [7] relates to Piricularia oryzae SANK 16975. As to the kind of experiment: microbe, parasite or virus in culture. Type of data set: cell-based. The following applies: 48 h.
Data set [8] has as its system Xanthomonas oryzae SANK 70274. Description: microbe, parasite or virus in culture. The following applies: SANK70274, 72 h. Type of data set: cell-based.
A short description of data set [9]: Solubility. Particulars: for Solubility: soluble in: organic solvents; for Solubility: insoluble in: water and, where named, other solvents.
The subject of data set [10] is Micrococcus luteus. As to the kind of experiment: MIC, Micrococcus luteus. Particulars: 24 h.
The subject of data set [11] is Proteus vulgaris OX19. Description: MIC, Proteus vulgaris OX19. Particulars: OX19, 24 h.
In data set [12] the test system is Proteus mirabilis 1331. As to the kind of experiment: MIC, Proteus mirabilis 1331. The following applies: Proteus mirabilis, 1331, 24 h.
Data set [13] relates to Bacillus subtilis PCI 219. Description: MIC, Bacillus subtilis PCI 219. The following applies: PCI219, 24 h.
Data set [14] has as its system Escherichia coli NIHJ JC-2. Description: MIC, Escherichia coli NIHJ JC-2. The following applies: NIHJJC2, 24 h.
For data set [15], the system named is Klebsiella pneumoniae PCI 602. As to the kind of experiment: MIC, Klebsiella pneumoniae PCI 602. The following applies: PCI602, 24 h.
Data set [16] deals with Staphylococcus aureus 209P JC-1. Description: MIC, Staphylococcus aureus 209P JC-1. The following applies: 24 h.
Data set [17] has as its system Pseudomonas aeruginosa SANK 73860. Description: MIC, Pseudomonas aeruginosa SANK 73860. Particulars: SANK73860, 24 h.

As to `CCC(=O)C(=O)N(C)C(C(=O)N1CC(CC)CC1C(=O)N(C)C1C(=O)NC(CC(C)C)C(=O)N2CC(C)CC2C(=O)NC(CCC(C)C)C(=O)N(C)C(C(C)C)C(=O)N2CCCC2C(=O)N(C)C(CC(C)C)C(=O)NCC(=O)OC1C)C(C)C` (stereo not drawn) [Mycoplanecin A] ({Butanoyl(2-oxo)}-[NMeV][X1][NMeT]L[ξPro(4ξ-Me)][hLeu][NMeV]P[NMeL]G; ester 3-C; configuration not given here), the antibacterial activity result in [1] is listed as “antibacterial activity, especially against microorganisms of the genus Mycobacterium”.
`CC(C)CCC1NC(=O)C2CC(C)CN2C(=O)C(CC(C)C)NC(=O)C(N(C)C(=O)C2CC(C)CN2)C(C)OC(=O)CNC(=O)C(CC(C)C)N(C)C(=O)C2CCCN2C(=O)C(C(C)C)N(C)C1=O` (stereo not drawn) [Compound (IIb)] registered an MIC in data set [2] of 6.25 µg/mL (≈ 6.43 µM).
The same measure, in the same setting: under `CCCCCC1C(=O)NCC(=O)OC(C)C(N(C)C(=O)C2CC(CC)CN2)C(=O)NC(CC(C)C)C(=O)N2CC(C)CC2C(=O)NC(CCC(C)C)C(=O)N(C)C(C(C)C)C(=O)N2CCCC2C(=O)N1C` (stereo not drawn) [Compound (IIIb)] (H-[X1][NMeT]L[ξPro(4ξ-Me)][hLeu][NMeV]P[NMeAhp(2)]G; ester 2-C; configuration not given here) stands 6.25 µg/mL (≈ 6.25 µM).
Consider `CCCCCC1C(=O)NCC(=O)OC(C)C(N(C)C(=O)C2CC(CC)CN2C(=O)C(C(C)C)N(C)C(=O)C(=O)CC)C(=O)NC(CC(C)C)C(=O)N2CC(C)CC2C(=O)NC(CCC(C)C)C(=O)N(C)C(C(C)C)C(=O)N2CCCC2C(=O)N1C` (stereo not drawn) [Mycoplanecin C] ({Butanoyl(2-oxo)}-[NMeV][X1][NMeT]L[ξPro(4ξ-Me)][hLeu][NMeV]P[NMeAhp(2)]G; ester 3-C; configuration not given here), for which the MIC in [3] (YU1200, medium S: 48 hours at 26° C. in Sabouraud's agar, read-out: MIC) was > 400 µg/mL; in [4] (SANK11262, medium S: 48 hours at 26° C. in Sabouraud's agar, read-out: MIC) it was > 400 µg/mL; in data set [5] (SANK12768, medium S: 48 hours at 26° C. in Sabouraud's agar, read-out: MIC), > 400 µg/mL; in [6] (SANK22374, medium S: 48 hours at 26° C. in Sabouraud's agar, read-out: MIC) it was > 400 µg/mL; in data set [7] it was > 400 µg/mL; in data set [8] it was 12.5 µg/mL (≈ 10.4 µM). Besides, the MIC in data set [10] was 0.0125 µg/mL (≈ 0.0104 µM); in data set [11] it was > 400 µg/mL; in data set [12], > 400 µg/mL; in data set [13], > 400 µg/mL; in data set [14], > 400 µg/mL; in data set [15] it was > 400 µg/mL. The MIC in [16] was > 400 µg/mL; in [17], > 400 µg/mL; in data set [2], 0.05 µg/mL (≈ 0.0418 µM). In data set [9], the “Solubility: soluble in” value is “Soluble in methanol, ethanol, ethyl acetate, acetone and chloroform”. Further, the “Solubility: insoluble in” value in [9] is reported as “Insoluble in water”.
Regarding `CCCCCC1C(=O)NCC(=O)OC(C)C(N(C)C(=O)C2CC(CC)CN2C(=O)C(C(C)C)N(C)C(=O)C(O)CC)C(=O)NC(CC(C)C)C(=O)N2CC(C)CC2C(=O)NC(CCC(C)C)C(=O)N(C)C(C(C)C)C(=O)N2CCCC2C(=O)N1C` (stereo not drawn) [Compound (IIIa)] (X2-[NMeV][X1][NMeT]L[ξPro(4ξ-Me)][hLeu][NMeV]P[NMeAhp(2)]G; ester 3-C; configuration not given here), in [2], the MIC turned out to be 0.05 µg/mL (≈ 0.0417 µM).
Consider `CCC(=O)C(=O)N(C)C(C(=O)N1CC(C)CC1C(=O)N(C)C1C(=O)NC(CC(C)C)C(=O)N2CC(C)CC2C(=O)NC(CCC(C)C)C(=O)N(C)C(C(C)C)C(=O)N2CCCC2C(=O)N(C)C(CC(C)C)C(=O)NCC(=O)OC1C)C(C)C` (stereo not drawn) [Mycoplanecin B], for which the MIC is > 400 µg/mL in data set [3] (YU1200, 48 h); > 400 µg/mL in data set [4] (SANK11262, 48 h); > 400 µg/mL in [5] (SANK12768, 48 h); > 400 µg/mL in [6] (SANK22374, 48 h); > 400 µg/mL in data set [7]; 12.5 µg/mL (≈ 10.7 µM) in data set [8] (read-out: MIC). Besides, the MIC in [10] was 0.0125 µg/mL (≈ 0.0107 µM); in data set [11] it was > 400 µg/mL; in data set [12] it was > 400 µg/mL; in data set [13], > 400 µg/mL; in [14] it was > 400 µg/mL; in data set [15], > 400 µg/mL. Further, the MIC was > 400 µg/mL in data set [16], > 400 µg/mL in [17] and 0.05 µg/mL (≈ 0.0428 µM) in [2]. Also, the “Solubility: soluble in” value in data set [9] is “Soluble in methanol, ethanol, ethyl acetate, acetone and chloroform”. The “Solubility: insoluble in” value in data set [9] is “Insoluble in water”.
In [2], `CCC(O)C(=O)N(C)C(C(=O)N1CC(C)CC1C(=O)N(C)C1C(=O)NC(CC(C)C)C(=O)N2CC(C)CC2C(=O)NC(CCC(C)C)C(=O)N(C)C(C(C)C)C(=O)N2CCCC2C(=O)N(C)C(CC(C)C)C(=O)NCC(=O)OC1C)C(C)C` (stereo not drawn) [Compound (IIa)] showed an MIC of 0.05 µg/mL (≈ 0.0427 µM).
